Columns and labels:
CYP1A2 = molecular target: T1, CYP1A2 (Homo sapiens, UniProt P05177); test: CYP450 inhibition at 10 μM; type: biochemical; conditions: 1A2, substrate Phenacetin
T1 sequence (P05177 1-516): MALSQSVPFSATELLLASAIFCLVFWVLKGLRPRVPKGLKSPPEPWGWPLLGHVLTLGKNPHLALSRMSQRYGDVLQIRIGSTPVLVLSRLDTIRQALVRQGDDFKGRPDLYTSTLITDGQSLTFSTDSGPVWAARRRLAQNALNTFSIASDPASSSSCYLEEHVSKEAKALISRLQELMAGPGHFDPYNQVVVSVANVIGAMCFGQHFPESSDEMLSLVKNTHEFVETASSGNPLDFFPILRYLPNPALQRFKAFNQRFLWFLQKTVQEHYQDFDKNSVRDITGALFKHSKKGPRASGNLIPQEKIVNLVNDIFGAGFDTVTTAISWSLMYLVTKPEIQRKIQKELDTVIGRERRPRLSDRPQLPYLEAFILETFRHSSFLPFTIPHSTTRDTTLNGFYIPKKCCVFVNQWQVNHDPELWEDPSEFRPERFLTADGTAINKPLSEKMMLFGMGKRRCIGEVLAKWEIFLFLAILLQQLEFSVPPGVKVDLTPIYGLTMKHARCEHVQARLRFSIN

CYP2C8 = CYP2C8 (Homo sapiens, UniProt P10632); test: in vitro; conditions: probe Amodiaquine
CYP2D6 = CYP2D6 (Homo sapiens, UniProt P10635); test: in vitro
CYP2C9 = CYP2C9 (Homo sapiens, UniProt P11712); test: in vitro
CYP2C19 = CYP2C19 (Homo sapiens, UniProt P33261); test: in vitro; conditions: probe Mephenytoin
CYP2C19, sequence (P33261 whole entry): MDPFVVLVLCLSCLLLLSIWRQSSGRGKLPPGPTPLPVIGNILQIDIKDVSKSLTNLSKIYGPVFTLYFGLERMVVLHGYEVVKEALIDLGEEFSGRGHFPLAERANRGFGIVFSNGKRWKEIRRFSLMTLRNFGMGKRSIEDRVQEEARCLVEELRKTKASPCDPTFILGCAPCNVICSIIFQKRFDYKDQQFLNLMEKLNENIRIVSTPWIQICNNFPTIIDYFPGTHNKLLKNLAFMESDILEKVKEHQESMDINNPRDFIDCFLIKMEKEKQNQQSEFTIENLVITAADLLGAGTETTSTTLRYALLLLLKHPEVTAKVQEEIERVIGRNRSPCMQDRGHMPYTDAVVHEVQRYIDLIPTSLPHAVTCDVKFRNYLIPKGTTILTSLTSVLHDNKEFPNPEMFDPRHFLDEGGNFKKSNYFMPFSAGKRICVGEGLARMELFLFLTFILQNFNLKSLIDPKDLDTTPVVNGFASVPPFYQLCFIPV

CYP2C8, sequence (P10632 whole entry): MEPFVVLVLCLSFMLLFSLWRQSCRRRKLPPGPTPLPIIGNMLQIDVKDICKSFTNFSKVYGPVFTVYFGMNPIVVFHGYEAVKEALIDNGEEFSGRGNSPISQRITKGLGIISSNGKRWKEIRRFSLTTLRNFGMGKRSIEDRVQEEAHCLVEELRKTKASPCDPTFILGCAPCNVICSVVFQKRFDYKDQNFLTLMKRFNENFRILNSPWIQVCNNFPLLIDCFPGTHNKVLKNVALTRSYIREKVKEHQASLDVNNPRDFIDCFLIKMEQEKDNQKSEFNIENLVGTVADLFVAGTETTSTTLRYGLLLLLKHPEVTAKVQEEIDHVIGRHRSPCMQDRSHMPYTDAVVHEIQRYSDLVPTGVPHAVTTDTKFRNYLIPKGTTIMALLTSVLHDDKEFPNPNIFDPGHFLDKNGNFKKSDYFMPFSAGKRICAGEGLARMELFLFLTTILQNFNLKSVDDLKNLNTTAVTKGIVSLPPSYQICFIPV
CYP2C9, sequence (P11712 whole entry): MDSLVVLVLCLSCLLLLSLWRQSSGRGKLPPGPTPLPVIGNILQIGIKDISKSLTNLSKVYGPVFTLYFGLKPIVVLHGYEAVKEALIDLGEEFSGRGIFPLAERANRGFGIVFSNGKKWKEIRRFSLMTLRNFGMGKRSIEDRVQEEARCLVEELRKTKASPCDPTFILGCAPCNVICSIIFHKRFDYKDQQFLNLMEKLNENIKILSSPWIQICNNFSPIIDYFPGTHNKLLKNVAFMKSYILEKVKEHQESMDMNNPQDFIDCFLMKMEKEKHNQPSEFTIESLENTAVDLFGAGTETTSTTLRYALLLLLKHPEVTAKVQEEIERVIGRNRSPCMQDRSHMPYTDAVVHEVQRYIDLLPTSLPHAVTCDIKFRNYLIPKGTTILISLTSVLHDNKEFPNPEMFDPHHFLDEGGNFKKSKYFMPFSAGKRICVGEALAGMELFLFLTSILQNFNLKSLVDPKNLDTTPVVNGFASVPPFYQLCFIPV
CYP2D6, sequence (P10635 whole entry): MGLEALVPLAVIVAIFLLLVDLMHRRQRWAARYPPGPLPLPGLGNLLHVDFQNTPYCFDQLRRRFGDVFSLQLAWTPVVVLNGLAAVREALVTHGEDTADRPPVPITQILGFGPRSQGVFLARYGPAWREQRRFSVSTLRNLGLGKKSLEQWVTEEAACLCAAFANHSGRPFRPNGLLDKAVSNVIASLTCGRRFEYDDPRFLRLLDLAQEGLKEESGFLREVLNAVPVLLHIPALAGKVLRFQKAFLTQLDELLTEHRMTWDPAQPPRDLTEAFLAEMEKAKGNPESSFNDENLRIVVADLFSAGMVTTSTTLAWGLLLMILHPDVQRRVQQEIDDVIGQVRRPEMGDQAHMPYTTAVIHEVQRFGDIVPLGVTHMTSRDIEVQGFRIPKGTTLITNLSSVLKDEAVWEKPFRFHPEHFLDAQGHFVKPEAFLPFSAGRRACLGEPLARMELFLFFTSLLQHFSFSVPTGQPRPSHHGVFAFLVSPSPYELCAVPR

## COCCCC/C(=N\OCCN)c1ccc(C(F)(F)F)cc1 [Fluvoxamine, reference compound]
CYP1A2
  inhibition at 10 µM: 96.6%

## O=c1c(O)c(-c2ccc(O)c(O)c2)oc2cc(O)cc(O)c12 [Quercetin, reference compound]
CYP2C8
  inhibition at 10 µM: 61.5%

## C=C[C@H]1C[N@@]2CC[C@H]1C[C@@H]2[C@@H](O)c1ccnc2ccc(OC)cc12 [Quinidine, reference compound]
CYP2D6
  inhibition at 1 μM: 55.8%

## Nc1ccc(S(=O)(=O)Nc2ccnn2-c2ccccc2)cc1 [Sulfaphenazole, reference compound]
CYP2C9
  inhibition at 10 µM: 95.3%

## COc1ccc2[nH]c([S+]([O-])Cc3ncc(C)c(OC)c3C)nc2c1 (centres unmarked) [Omeprazole, reference compound]
CYP2C19
  inhibition at 10 µM: 68.2%
